# According to ChEMBL document CHEMBL5260845, “Flavone-based arylamides as potential anticancers: Design, synthesis and in vitro cell-based/cell-free evaluations” (2020):
# Active and inactive are the calls of the source. The calls are words filed in the database; no cut-off is given here.
# Experiments:
# SK-MEL-2 = test: Antiproliferative activity against human SK-MEL-2 cells assessed as cell growth inhibition at 10 uM by SRB assay relative to control; format: functional; conditions: Homo sapiens, SK-MEL-2, dose 10 µM
# M14 = test: Antiproliferative activity against human M14 cells assessed as cell growth inhibition at 10 uM by SRB assay relative to control; format: functional
# LOX IMVI = test: Antiproliferative activity against human LOX IMVI cells assessed as cell growth inhibition at 10 uM by SRB assay relative to control; format: functional
# UACC-257 = test: Antiproliferative activity against human UACC-257 cells assessed as cell growth inhibition at 10 uM by SRB assay relative to control; format: functional
# Malme-3M = test: Antiproliferative activity against human Malme-3M cells assessed as cell growth inhibition at 10 uM by SRB assay; format: functional, cell-based
# UACC-62 = test: Antiproliferative activity against human UACC-62 cells assessed as cell growth inhibition at 10 uM by SRB assay relative to control; format: functional
# MDA-MB-435 = test: Antiproliferative activity against human MDA-MB-435 cells assessed as cell growth inhibition at 10 uM by SRB assay; format: functional, cell-based
# SK-MEL-28 = test: Antiproliferative activity against human SK-MEL-28 cells assessed as cell growth inhibition at 10 uM by SRB assay; format: functional, cell-based
# SK-MEL-5 = test: Antiproliferative activity against human SK-MEL-5 cells assessed as cell growth inhibition at 10 uM by SRB assay; format: functional, cell-based
# HCC 2998 = test: Antiproliferative activity against human HCC 2998 cells assessed as cell growth inhibition at 10 uM by SRB assay; format: functional, cell-based
# SNB-19 = test: Antiproliferative activity against temozolomide resistant human SNB-19 cells assessed as cell growth inhibition at 10 uM by SRB assay; format: functional, cell-based
# HCT-116 = test: Antiproliferative activity against human HCT-116 cells assessed as cell growth inhibition at 10 uM by SRB assay; format: functional, cell-based
# RXF 393 = test: Antiproliferative activity against human RXF 393 cells assessed as inhibition of cell growth at 10 uM by SRB assay relative to control; format: functional
# Renal cancer cell line = test: Antiproliferative activity against human renal cancer cells assessed as cell growth inhibition at 10 uM by SRB assay relative to control; format: functional
# SN12C = test: Antiproliferative activity against human SN12C cells assessed as inhibition of cell growth at 10 uM by SRB assay relative to control; format: functional
# NCI-H460 = test: Antiproliferative activity against human NCI-H460 cells assessed as cell growth inhibition at 10 uM by SRB assay relative to control; format: functional
# Lung cancer cell line = test: Antiproliferative activity against human lung cancer cells assessed as cell growth inhibition at 10 uM by SRB assay relative to control; format: functional
# Hs-578T [1] = test: Antiproliferative activity against human Hs-578T cells assessed as inhibition of cell growth at 10 uM by SRB assay relative to control; format: functional
# [2] = Antiproliferative activity against human brain cancer cells assessed as cell growth inhibition at 10 uM by SRB assay relative to control; format: functional
# ACHN = test: Antiproliferative activity against human ACHN cells assessed as inhibition of cell growth at 10 uM by SRB assay relative to control; format: functional; conditions: pooled result: one value given for 2 cell lines, strains, targets or settings
# RPMI-8226 [3] = test: Antiproliferative activity against human RPMI-8226 cells assessed as cell growth inhibition at 10 uM by SRB assay relative to control; format: functional
# HT-29 = test: Antiproliferative activity against human HT-29 cells assessed as cell growth inhibition at 10 uM by SRB assay; format: functional, cell-based
# SW-620 = test: Antiproliferative activity against human SW620 cells assessed as cell growth inhibition at 10 uM by SRB assay; format: functional, cell-based
# 786-0 = test: Antiproliferative activity against human 786-0 cells assessed as inhibition of cell growth at 10 uM by SRB assay relative to control; format: functional
# HCT-15 = test: Antiproliferative activity against human HCT-15 cells assessed as cell growth inhibition at 10 uM by SRB assay; format: functional, cell-based
# COLO 205 = test: Antiproliferative activity against human COLO 205 cells assessed as cell growth inhibition at 10 uM by SRB assay; format: functional, cell-based
# KM12 = test: Antiproliferative activity against human KM12 cells assessed as cell growth inhibition at 10 uM by SRB assay; format: functional, cell-based
# OVCAR-4 = test: Antiproliferative activity against human OVCAR-4 cells assessed as cell growth inhibition at 10 uM by SRB assay relative to control; format: functional
# Breast carcinoma cell = test: Antiproliferative activity against human breast cancer cells assessed as cell growth inhibition at 10 uM by SRB assay relative to control; format: functional; conditions: pooled result: one value given for 3 cell lines, strains, targets or settings
# OVCAR-8 = test: Antiproliferative activity against human OVCAR-8 cells assessed as cell growth inhibition at 10 uM by SRB assay relative to control; format: functional
# NCI-H226 = test: Antiproliferative activity against human NCI-H226 cells assessed as cell growth inhibition at 10 uM by SRB assay; format: functional
# NCI-H522 = test: Antiproliferative activity against human NCI-H522 cells assessed as cell growth inhibition at 10 uM by SRB assay; format: functional, cell-based
# UO-31 = test: Antiproliferative activity against human UO-31 cells assessed as inhibition of cell growth at 10 uM by SRB assay relative to control; format: functional
# SR = test: Antiproliferative activity against human SR cells assessed as cell growth inhibition at 10 uM by SRB assay; format: functional, cell-based
# SF-295 = test: Antiproliferative activity against human SF-295 cells assessed as cell growth inhibition at 10 uM by SRB assay; format: functional, cell-based
# RPMI-8226 [4] = test: Antiproliferative activity against human RPMI-8226 cells assessed as cell growth inhibition at 10 uM by SRB assay; format: functional, cell-based
# PC-3 = test: Antiproliferative activity against human PC-3 cells assessed as inhibition of cell growth at 10 uM by SRB assay; format: functional, cell-based
# HL-60 = test: Antiproliferative activity against human HL-60 cells assessed as cell growth inhibition at 10 uM by SRB assay; format: functional, cell-based
# DU-145 = test: Antiproliferative activity against human DU-145 cells assessed as inhibition of cell growth at 10 uM by SRB assay relative to control; format: functional
# HOP-92 = test: Antiproliferative activity against human HOP-92 cells assessed as cell growth inhibition at 10 uM by SRB assay; format: functional, cell-based
# K562 = test: Antiproliferative activity against human K562 cells assessed as cell growth inhibition at 10 uM by SRB assay; format: functional, cell-based
# CCRF-CEM = test: Antiproliferative activity against human CCRF-CEM cells assessed as cell growth inhibition at 10 uM by SRB assay; format: functional, cell-based
# MOLT-4 = test: Antiproliferative activity against human MOLT-4 cells assessed as cell growth inhibition at 10 uM by SRB assay; format: functional, cell-based
# NCI-H23 = test: Antiproliferative activity against human NCI-H23 cells assessed as cell growth inhibition at 10 uM by SRB assay; format: functional
# Hs-578T [5] = test: Antiproliferative activity against human Hs-578T cells assessed as inhibition of cell growth at 10 uM by SRB assay; format: functional, cell-based
# EKVX = test: Antiproliferative activity against human EKVX cells assessed as cell growth inhibition at 10 uM by SRB assay; format: functional
# SF-539 = test: Antiproliferative activity against temozolomide resistant human SF-539 cells assessed as cell growth inhibition at 10 uM by SRB assay; format: functional, cell-based
# SNB-75 = test: Antiproliferative activity against temozolomide resistant human SNB-75 cells assessed as cell growth inhibition at 10 uM by SRB assay; format: functional, cell-based
smiles,measurement,setting,value
CN(C)/N=N/c1[nH]cnc1C(N)=O [DACARBAZINE],inhibition at 10 µM,SK-MEL-2,15%
same,inhibition at 10 µM,M14,36.5%
same,inhibition at 10 µM,LOX IMVI,49.3%
same,inhibition at 10 µM,UACC-257,15%
same,inhibition,Malme-3M,inactive
same,inhibition at 10 µM,UACC-62,25.6%
same,inhibition,MDA-MB-435,inactive
same,inhibition,SK-MEL-28,inactive
same,inhibition,SK-MEL-5,inactive
COc1cc2oc(-c3cccc(C(=O)Nc4ccc(Cl)cc4)c3)cc(=O)c2c(O)c1OC,inhibition,HCC 2998,Active
same,inhibition,SNB-19,Active
same,inhibition,HCT-116,Active
same,inhibition at 10 µM,RXF 393,53%
same,inhibition at 10 µM,Renal cancer cell line,> 50%
same,inhibition at 10 µM,SN12C,53%
same,inhibition at 10 µM,NCI-H460,79.5%
same,inhibition at 10 µM,Lung cancer cell line,> 50%
same,inhibition at 10 µM,Hs-578T [1],93.3%
same,inhibition at 10 µM,[2],> 50%
same,inhibition at 10 µM,ACHN,53%
same,inhibition at 10 µM,RPMI-8226 [3],82.6%
same,inhibition,HT-29,Active
same,inhibition,SW-620,Active
same,inhibition at 10 µM,786-0,53%
same,inhibition at 10 µM,UACC-62,57.3%
same,inhibition,HCT-15,Active
same,inhibition,COLO 205,Active
same,inhibition,KM12,Active
same,inhibition at 10 µM,OVCAR-4,130%
same,inhibition at 10 µM,Breast carcinoma cell,> 50%
same,inhibition at 10 µM,OVCAR-8,83.7%
COc1cc2oc(-c3ccc(NC(=O)c4ccccc4Br)cc3)cc(=O)c2c(OC)c1OC,inhibition at 10 µM,NCI-H226,< 50%
same,inhibition,NCI-H522,Active
same,inhibition,UO-31,Active
same,inhibition,SR,Active
same,inhibition,SF-295,Active
same,inhibition,RPMI-8226 [4],Active
same,inhibition,PC-3,Active
same,inhibition,HL-60,Active
same,inhibition at 10 µM,DU-145,29.6%
same,inhibition,HOP-92,Active
same,inhibition,K562,Active
same,inhibition,CCRF-CEM,Active
same,inhibition,MOLT-4,Active
same,inhibition at 10 µM,NCI-H23,< 50%
same,inhibition,Hs-578T [5],Active
same,inhibition at 10 µM,EKVX,< 50%
COc1cc2oc(-c3cccc(C(=O)Nc4ccc(C)cc4)c3)cc(=O)c2c(O)c1OC,inhibition at 10 µM,RPMI-8226 [3],82.6%
same,inhibition,SF-539,Active
same,inhibition,SNB-75,Active
